Measured values published in paper PMC8900595 (Journal of medicinal chemistry, 2021).

Test system: H1N1 A/WSN/1933 virus
Format: cell-based, influenza A virus

CCN(c1ccccc1C)S(=O)(=O)c1cc(Cl)ccc1Cl [compound 1, 2,5-dichloro-N-ethyl-N-(o-tolyl)-benzenesulfonamide]
concentration required for maximum virus inhibition (three logs) while maintaining enough virus production for passages: 0.5 μM
